Reference: ChEMBL document CHEMBL5230123, “A comprehensive review of monoamine oxidase inhibitors as Anti-Alzheimer's disease agents: A review” (Eur J Med Chem, 2020)

Assays:
Acetylcholinesterase = Acetylcholinesterase (Electrophorus electricus, UniProt O42275); assay: Inhibition of electric eel AChE using acetylthiocholine iodide as substrate incubated for 15 mins by Ellman's method
[1] = target: T1, Amine oxidase [flavin-containing] A (Homo sapiens, UniProt P21397); assay: Mixed type inhibition of human MAO-A assessed as inhibition constant by Lineweaver-Burk plot analysis
T1 sequence (P21397 whole entry): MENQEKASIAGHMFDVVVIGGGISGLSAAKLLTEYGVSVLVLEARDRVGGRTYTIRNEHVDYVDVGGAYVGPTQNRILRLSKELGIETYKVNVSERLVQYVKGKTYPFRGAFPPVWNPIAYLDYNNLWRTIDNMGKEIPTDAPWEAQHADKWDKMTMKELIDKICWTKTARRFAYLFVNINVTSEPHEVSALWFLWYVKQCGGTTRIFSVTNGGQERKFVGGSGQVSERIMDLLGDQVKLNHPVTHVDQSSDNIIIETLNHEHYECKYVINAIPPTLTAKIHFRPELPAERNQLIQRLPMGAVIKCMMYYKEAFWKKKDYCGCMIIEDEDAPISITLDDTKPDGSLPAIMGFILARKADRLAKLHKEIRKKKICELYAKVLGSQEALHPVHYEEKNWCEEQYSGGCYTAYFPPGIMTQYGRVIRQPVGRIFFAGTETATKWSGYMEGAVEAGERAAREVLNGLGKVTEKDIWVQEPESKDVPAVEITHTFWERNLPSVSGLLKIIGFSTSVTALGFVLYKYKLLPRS

[2] = target: T2, Amine oxidase [flavin-containing] B (Homo sapiens, UniProt P27338); assay: Inhibition of human MAO-B
T2 sequence (P27338 whole entry): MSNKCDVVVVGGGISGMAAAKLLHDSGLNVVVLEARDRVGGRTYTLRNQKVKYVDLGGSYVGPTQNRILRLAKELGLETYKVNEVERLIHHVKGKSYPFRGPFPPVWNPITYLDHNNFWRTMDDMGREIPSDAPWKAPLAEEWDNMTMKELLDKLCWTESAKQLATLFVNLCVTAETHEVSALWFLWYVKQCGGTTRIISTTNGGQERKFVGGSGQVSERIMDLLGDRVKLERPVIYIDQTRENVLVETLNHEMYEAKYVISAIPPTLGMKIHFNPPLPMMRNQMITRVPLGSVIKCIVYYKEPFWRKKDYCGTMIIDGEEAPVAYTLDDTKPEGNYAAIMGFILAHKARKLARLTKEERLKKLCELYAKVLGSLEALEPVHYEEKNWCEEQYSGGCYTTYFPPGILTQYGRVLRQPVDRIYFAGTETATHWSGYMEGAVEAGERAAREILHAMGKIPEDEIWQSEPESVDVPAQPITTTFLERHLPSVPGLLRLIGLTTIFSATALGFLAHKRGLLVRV

[3] = target: T2, Amine oxidase [flavin-containing] B; assay: Inhibition of human MAO-B using tyramine hydrochloride as substrate preincubated for 30 mins followed by substrate addition and measured after 30 mins by fluorescence assay
[4] = target: T2, Amine oxidase [flavin-containing] B; assay: Inhibition of human MAO-B assessed as inhibition constant using benzylamine as substrate
[5] = target: T2, Amine oxidase [flavin-containing] B; assay: Inhibition of human MAO-B using benzylamine as substrate
[6] = target: T1, Amine oxidase [flavin-containing] A; assay: Inhibition of human MAO-A assessed as inhibition constant using kynuramine as substrate

Acetylcholinesterase, sequence (O42275 whole entry): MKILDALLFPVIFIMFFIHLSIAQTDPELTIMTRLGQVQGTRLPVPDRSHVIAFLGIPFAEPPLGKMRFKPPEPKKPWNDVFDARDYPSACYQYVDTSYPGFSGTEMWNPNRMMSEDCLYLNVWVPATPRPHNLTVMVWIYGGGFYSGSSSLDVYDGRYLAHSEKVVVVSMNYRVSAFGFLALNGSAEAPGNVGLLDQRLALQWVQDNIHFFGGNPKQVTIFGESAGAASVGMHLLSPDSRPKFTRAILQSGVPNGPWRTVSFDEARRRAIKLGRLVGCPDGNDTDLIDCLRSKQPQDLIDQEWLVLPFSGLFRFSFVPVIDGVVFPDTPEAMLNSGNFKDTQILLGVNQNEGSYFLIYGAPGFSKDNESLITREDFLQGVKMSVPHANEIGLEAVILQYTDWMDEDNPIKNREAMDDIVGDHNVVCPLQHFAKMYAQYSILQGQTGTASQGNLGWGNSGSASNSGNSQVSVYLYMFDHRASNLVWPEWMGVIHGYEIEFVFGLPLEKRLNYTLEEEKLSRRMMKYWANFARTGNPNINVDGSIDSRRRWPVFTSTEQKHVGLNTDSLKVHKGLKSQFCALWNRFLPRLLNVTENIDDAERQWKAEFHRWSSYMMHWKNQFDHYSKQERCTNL

For `C#CCN1C(=O)/C(=N/NC(=O)c2ccc3c(c2)OCO3)c2ccccc21`, the IC50 (Acetylcholinesterase) was 0.052 µM.

Work on `COc1cc(O)c2c(=O)oc3cc(O)cc(C)c3c2c1` yielded a Ki [1] of 0.34 µM and an IC50 [2] greater than 80 µM.

Compound `O=C(CSC(=S)N1CCN(c2ccc([N+](=O)[O-])cc2)CC1)N(Cc1ccc([N+](=O)[O-])cc1)c1ccc(F)cc1` has an IC50 [3] of 0.097 µM.

With `O=C(/C=C/c1ccc(O)cc1)CC(=O)/C=C/c1ccc(O)cc1` [BISDEMETHOXYCURCUMIN] the Ki [4] was 0.8 µM and the IC50 [5] was 2.59 µM.

`COc1cc(/C=C/C(=O)CC(=O)/C=C/c2ccc(O)cc2)ccc1O` was tested, and the Ki [6] was 0.91 µM and the IC50 [5] was 2.45 µM.
